We go through 24 compounds from patent publication US20240409556A1, “BENZOPIPERAZINE AND RELATED ANALOGS FOR INHIBITING YAP/TAZ-TEAD” (Springworks Therapeutics, Inc., priority 2023, published 2024).

Bounds are passed on as bounds.

As usually defined, the IC50 is the concentration needed to halve the response being measured. High values mean weaker potency, low ones greater potency.

In the first test the test system is YAP/TAZ-TEAD transcription. The experiment in a line: Reporter gene assay for measuring the inhibition of YAP/TAZ-TEAD transcription (TEAD-responsive element luciferase reporter in Hek293T cells). As to conditions: 24 hours incubation. The test is classed as cell-based. As to the method:
Example 56: Activity of Compounds of the Disclosure in a Reporter Gene Assay for Measuring the Inhibition of YAP/TAZ-TEAD Transcription
Hek293T cells were cultured in DMEM supplemented with 10% fetal bovine serum, Sodium pyruvate, Sodium bicarbonate, L-glutamine. The cells were harvested and transiently transfected with TEAD-responsive element luciferase reporter. Transfected cells were plated in 384-well plate containing pre-diluted compounds. After 24 hours incubation at 37° C./5% CO2, assay plates were cooled to room temperature and levelled to an equal volume per well, prior to the addition of 25 uL luciferase substrate SteadyLite (Perkin Elmer)/well. The plate was shaken for 10 min at 600 rpm, centrifuged for 1 min at 500 rpm and measured with an Envision reader (PerkinElmer). The amount of relative light units produced by the TEAD reporter was used to calculate the percentage of inhibition.
The percent of reporter inhibition was calculated in the presence of a positive control inhibitor (100% inhibition) versus a condition with the presence of the vehicle basal activity of the reporter (0% inhibition). The ability of a test compound to inhibit this activity was determined as: Percentage inhibition=[[…]((RLU determined in the presence of vehicle−RLU determined for sample with test compound present) divided by (RLU determined in the presence of vehicle−RLU determined for sample with positive control inhibitor))]*100.
The activities of example compounds tested are depicted in Table 3. The activity ranges A, B and C refer to IC50 values in the reporter gene assay as follows: “A”: IC50<1 μM; “B”: 1 μM≤IC50≤10 μM and “C”: IC50>10 μM; NT=not tested.
On the technique in general: In a reporter assay the amount or activity of a reporter protein is the signal.
The compound `CC1(C(=O)O)CCN2c3ccccc3N(c3ccc(C(F)(F)F)cc3)CC2C1` [115-D2, (6aS,8S)— or (6aR,8S)— or (6aR,8R)— or (6aS,8R)-8-methyl-5-(4-(trifluoromethyl)phenyl)-6,6a,7,8,9,10-hexahydro-5H-pyrido[1,2-a]quinoxaline-8-carboxylic acid] gave an IC50 of less than 1000 nM.

With `FC(F)(F)c1ccc(N2CC3CC(c4nnn[nH]4)CCN3c3ccccc32)cc1` (single isomer, unassigned) [121-D4, 8-(1H-tetrazol-5-yl)-5-(4-(trifluoromethyl)phenyl)-6,6a,7,8,9,10-hexahydro-5H-pyrido[1,2-a]quinoxaline], the IC50 is less than 1000 nM. Still for that read-out and setting: for `CC(=O)N1CCN2c3ncccc3N(c3ccc(C(F)(F)F)cc3)CC2C1` (single isomer, unassigned) [29-En2, (R)- or (S)-1-(5-(4-(trifluoromethyl)phenyl)-5,6,6a,7,9,10-hexahydro-8H-pyrazino[1,2-a]pyrido[3,2-e]pyrazin-8-yl)ethan-1-one] the value was less than 1000 nM; for `CC(=O)NCC1CN(c2ccc(C(F)(F)F)cc2)c2ccc(C3CC3)nc2O1` (stereo not drawn) [compound 81, N-((6-cyclopropyl-1-(4-(trifluoromethyl)phenyl)-2,3-dihydro-1H-pyrido[2,3-b][1,4]oxazin-3-yl)methyl)acetamide], less than 1000 nM. Still for that read-out and setting: for `CC(=O)NCC1CN(c2ccc(C(F)(F)F)cc2)c2ccc(C3CC3)nc2O1` (single isomer, unassigned) [81-En2, (R)- or (S)-N-((6-cyclopropyl-1-(4-(trifluoromethyl)phenyl)-2,3-dihydro-1H-pyrido[2,3-b][1,4]oxazin-3-yl)methyl)acetamide] the value was less than 1000 nM; for `CC(=O)N1CC2CN(c3ccc(C(F)(F)F)cc3)c3ccccc3N2CC1C(=O)O` (stereo not drawn) [compound 90, (cis)- or (trans)-3-acetyl-6-(4-(trifluoromethyl)phenyl)-2,3,4,4a,5,6-hexahydro-1H-pyrazino[1,2-a]quinoxaline-2-carboxylic acid], more than 10000 nM; for `C=CC(=O)N1CCN2C(C1)CN(c1ccc(C(F)(F)F)cc1)C1CCC12` (single isomer, unassigned) [42(Dia2), 1-(3-(4-(trifluoromethyl)phenyl)decahydro-6H-cyclobuta[e]pyrazino[1,2-a]pyrazin-6-yl)prop-2-en-1-one], less than 1000 nM. Still for that read-out and setting: the figure for `COc1ccc2c(n1)OC(CNC(C)=O)CN2c1ccc(C(F)(F)F)cc1` (single isomer, unassigned) [73-En1, (R)- or (S)-N-((6-methoxy-1-(4-(trifluoromethyl)phenyl)-2,3-dihydro-1H-pyrido[2,3-b][1,4]oxazin-3-yl)methyl)acetamide] is more than 10000 nM; for `CNS(=O)(=O)N1CCN2c3ccccc3N(c3ccc(C(F)(F)F)cc3)CC2C1` (single isomer, unassigned) [32-En1, (R)- or (S)-N-methyl-6-(4-(trifluoromethyl)phenyl)-1,2,4,4a,5,6-hexahydro-3H-pyrazino[1,2-a]quinoxaline-3-sulfonamide] it is less than 1000 nM.

Staying with this test, now noted: Homo sapiens, HEK-293T, 24 h, 24 hours incubation.
Compound `N#C[C@@H]1C[C@@H]2CN(c3ccc(C(F)(F)F)cc3)c3cccnc3N2C1` [compound 103, (6aR,8R)-5-(4-(trifluoromethyl)phenyl)-5,6,6a,7,8,9-hexahydropyrido[3,2-e]pyrrolo[1,2-a]pyrazine-8-carbonitrile] displayed a concentration for half-maximal inhibition (IC50) of more than 10000 nM.

For the compound `C=CC(=O)NCC1CN(c2ccc(C(F)(F)F)cc2)c2ccccc2N1CCC(=O)NC` (stereo not drawn) [compound 9, N-((1-(3-(methylamino)-3-oxopropyl)-4-(4-(trifluoromethyl)phenyl)-1,2,3,4-tetrahydroquinoxalin-2-yl)methyl)acrylamide], the IC50 was less than 1000 nM. For the compound `FC(F)(F)c1ccc(N2CCN(Cc3ncc[nH]3)c3ccccc32)cc1` [compound 62, 1-((1H-imidazol-2-yl)methyl)-4-(4-(trifluoromethyl)phenyl)-1,2,3,4-tetrahydroquinoxaline], the IC50 is less than 1000 nM. The same measure, in the same setting: the figure for `C=CC(=O)N1CCN2c3nccnc3N(c3ccc(C(F)(F)F)cc3)CC2C1` (stereo not drawn) [compound 41, 1-(5-(4-(trifluoromethyl)phenyl)-5,6,6a,7,9,10-hexahydro-8H-dipyrazino[1,2-a:2′,3′-e]pyrazin-8-yl)prop-2-en-1-one] is less than 1000 nM; for `C=CC(=O)NCC1CN(c2ccc(C(F)(F)F)cc2)c2ccccc2N1CCO` (stereo not drawn) [compound 1, N-((1-(2-hydroxyethyl)-4-(4-(trifluoromethyl)phenyl)-1,2,3,4-tetrahydroquinoxalin-2-yl)methyl)acrylamide] it is less than 1000 nM.

On to `FC(F)(F)c1ccc(N2CCN(Cc3cnco3)c3ccccc32)cc1` [compound 67, 5-((4-(4-(trifluoromethyl)phenyl)-3,4-dihydroquinoxalin-1(2H)-yl)methyl)oxazole], for which the IC50 is less than 1000 nM.

With `CNS(=O)(=O)N1CCN2C(=O)CN(c3ccc(C(F)(F)F)cc3)CC2C1` (stereo not drawn) [compound 72, N-methyl-6-oxo-8-(4-(trifluoromethyl)phenyl)octahydro-2H-pyrazino[1,2-a]pyrazine-2-sulfonamide], the IC50 was more than 10000 nM. Still for that read-out and setting: the figure for `CN(c1ccc(C(F)(F)F)cc1)c1ccccc1N1CCC(C(=O)O)CC1` [compound 118, 1-(2-(methyl(4-(trifluoromethyl)phenyl)amino)phenyl)piperidine-4-carboxylic acid] is 1000 to 10000 nM. Same read-out and setting: for `CC(C)C(=O)N1CCN2c3ncccc3N(c3ccc(C(F)(F)F)cc3)CC2C1` (stereo not drawn) [compound 47, 2-methyl-1-(5-(4-(trifluoromethyl)phenyl)-5,6,6a,7,9,10-hexahydro-8H-pyrazino[1,2-a]pyrido[3,2-e]pyrazin-8-yl)propan-1-one] the value was less than 1000 nM; for `C=CC(=O)NCC1CN(c2ccc(C(F)(F)F)cc2)c2ccccc2N1CC(N)=O` (stereo not drawn) [compound 11, N-((1-(2-amino-2-oxoethyl)-4-(4-(trifluoromethyl)phenyl)-1,2,3,4-tetrahydroquinoxalin-2-yl)methyl)acrylamide], less than 1000 nM. On the same count and under the same terms, for `CNC(=O)O[C@H]1C[C@@H]2CN(c3ccc(C(F)(F)F)cc3)c3cccnc3N2C1` [55-En1, (6aR,8S)-5-(4-(trifluoromethyl)phenyl)-5,6,6a,7,8,9-hexahydropyrido[3,2-e]pyrrolo[1,2-a]pyrazin-8-yl methylcarbamate] the value was less than 1000 nM; for `CC(=O)NCC1CN(c2ccc(C(F)(F)F)cc2)c2ccccc2N1CCCO` (stereo not drawn) [compound 6, N-((1-(3-hydroxypropyl)-4-(4-(trifluoromethyl)phenyl)-1,2,3,4-tetrahydroquinoxalin-2-yl)methyl)acetamide], more than 10000 nM; for `CS(=O)(=O)N1CCN2C(=O)CN(c3ccc(C(F)(F)F)cc3)CC2C1` (stereo not drawn) [compound 71, 8-(methylsulfonyl)-2-(4-(trifluoromethyl)phenyl)octahydro-4H-pyrazino[1,2-a]pyrazin-4-one], more than 10000 nM. Regarding `C=CC(=O)NCC1CN(c2ccc(C(F)(F)F)cc2)c2ccccc2N1CC(=O)NC` (stereo not drawn) [compound 12, N-((1-(2-(methylamino)-2-oxoethyl)-4-(4-(trifluoromethyl)phenyl)-1,2,3,4-tetrahydroquinoxalin-2-yl)methyl)acrylamide], the half-inhibitory concentration (IC50) was less than 1000 nM. Same read-out and setting: the figure for `COC(=O)N1CCN2c3ccccc3N(c3ccc(C(F)(F)F)cc3)CC2C1` (stereo not drawn) [compound 20, methyl 6-(4-(trifluoromethyl)phenyl)-1,2,4,4a,5,6-hexahydro-3H-pyrazino[1,2-a]quinoxaline-3-carboxylate] is less than 1000 nM.
